The test system of series [1] is TNFα release from THP-1 cells. Nature of the series: Inhibition of TNFα release from LPS-stimulated THP-1 cells, ELISA. It is filed as cell-based. The following applies: Homo sapiens, THP-1, THP-1 cells, read-out: [CELL] THP-1, IC50, TNF ALPHA, ELISA. The method, boiled down:
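Human THP-1 monocytes, 10^6 cells/ml in RPMI with 10% FBS, no serum or 1% HSA, preincubated 30 min at 37 °C with compound (≤0.5% DMSO), then stimulated with 10 μg/ml LPS for 18 h. Supernatant TNFα measured by ELISA; IC50 from non-linear dose-response regression.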

A further series addresses T1, p38α (Homo sapiens, UniProt Q16539).
T1 construct: p38 MAP Kinases are recombinant human full-length proteins with an amino-terminal GST fusion; GST (N); purchased Upstate Biotechnology Inc; host or cells: E. coli
As to the kind of experiment: p38 MAP Kinase assay: inhibition of ATF2 phosphorylation, ELISA. The series is classed as biochemical. Particulars: ATF2 phosphorylation; read-out: [ENZ] P38 ALPHA, IC50, ELISA. The method, boiled down: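 GST-tagged full-length human p38 MAP kinase with GST-ATF2 (aa 19–96; 1.25 μM) and 40 μM ATP in HEPES pH 7.5 buffer, without (Method I) or with (Method II) 1% human serum albumin. Compound pre-incubated 15 min at room temperature; reaction 30 min at 37 °C; ATF2 Thr69 phosphorylation measured by ELISA (A450).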
(In general: ELISA stands for enzyme-linked immunosorbent assay.)

T1 sequence (Q16539 whole entry, the tested form may be a part): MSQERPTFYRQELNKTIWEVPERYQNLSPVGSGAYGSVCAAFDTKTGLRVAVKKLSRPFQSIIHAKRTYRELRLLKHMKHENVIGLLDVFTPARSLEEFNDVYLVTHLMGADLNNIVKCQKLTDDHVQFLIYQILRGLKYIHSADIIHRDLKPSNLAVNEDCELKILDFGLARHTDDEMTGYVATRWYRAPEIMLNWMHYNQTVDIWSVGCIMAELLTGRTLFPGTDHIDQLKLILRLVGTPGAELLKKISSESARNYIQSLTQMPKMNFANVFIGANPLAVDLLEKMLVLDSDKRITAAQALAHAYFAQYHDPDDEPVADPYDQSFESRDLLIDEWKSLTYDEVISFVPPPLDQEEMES

As a reminder, the melting point is the temperature of the solid-liquid transition. Broadly, the IC50 is the concentration that inhibits the measured activity by half. `CN1CCCC1CCNc1nccc(Oc2ccc(NC(=O)c3cc(F)cc(N4CCOCC4)c3)c3ccccc23)n1` (stereo not drawn) [Compound B344, 3-Fluoro-N-{4-[(2-{[2-(1-methylpyrrolidin-2-yl)ethyl]amino}pyrimidin-4-yl)oxy]-1-naphthyl}-5-morpholin-4-ylbenzamide] returned a melting point of 100 to 101 °C. In addition, the IC50 in series [1] was found to be 0.0061 µM. For the same compound, the IC50 at p38α was found to be 0.0011 µM.

`CCN1CCN(c2nccc(Oc3ccc(NC(=O)c4cc(F)cc(N5CCOCC5)c4)c4ccccc34)n2)CC1` [Compound B345, N-(4-{[2-(4-Ethylpiperazin-1-yl)pyrimidin-4-yl]oxy}-1-naphthyl)-3-fluoro-5-morpholin-4-ylbenzamide] registered a melting point of 185 to 186 °C. Moreover, the IC50 in series [1] came out at 0.0796 µM. The IC50 on p38α is 0.0133 µM.

For the compound `O=C(Nc1ccc(Oc2ccnc(N3CCCC(O)C3)n2)c2ccccc12)c1cc(F)cc(N2CCOCC2)c1` (stereo not drawn) [Compound B346, 3-Fluoro-N-(4-{[2-(3-hydroxypiperidin-1-yl)pyrimidin-4-yl]oxy}-1-naphthyl)-5-morpholin-4-ylbenzamide], the melting point lay within 180 to 181 °C. Also, the IC50 in series [1] turned out to be 0.431 µM. Moreover, the half-inhibitory concentration (IC50) on p38α turned out to be 0.0052 µM.

In turn, `O=C(Nc1ccc(Oc2ccnc(NC3CCS(=O)(=O)C3)n2)c2ccccc12)c1cc(F)cc(N2CCOCC2)c1` (stereo not drawn) [Compound B347, N-[4-({2-[(1,1-Dioxidotetrahydro-3-thienyl)amino]pyrimidin-4-yl}oxy)-1-naphthyl]-3-fluoro-5-morpholin-4-ylbenzamide] returned a melting point of 150 to 151 °C. In addition, the IC50 in series [1] was determined as 0.0422 µM. The IC50 at p38α was 0.0139 µM.

`CC1CC(C)CN(c2nccc(Oc3ccc(NC(=O)c4cc(F)cc(N5CCOCC5)c4)c4ccccc34)n2)C1` (stereo not drawn) [Compound B348, N-(4-{[2-(3,5-Dimethylpiperidin-1-yl)pyrimidin-4-yl]oxy}-1-naphthyl)-3-fluoro-5-morpholin-4-ylbenzamide] displayed a melting point of 102 to 104 °C. Further, the 50% inhibitory concentration (IC50) in series [1] was above 1 µM. Besides, the 50% inhibitory concentration (IC50) at p38α stood at 0.166 µM.

Consider `CN(CC1OCCO1)c1nccc(Oc2ccc(NC(=O)c3cc(F)cc(N4CCOCC4)c3)c3ccccc23)n1` [Compound B349, N-[4-({2-[(1,3-Dioxolan-2-ylmethyl)(methyl)amino]pyrimidin-4-yl}oxy)-1-naphthyl]-3-fluoro-5-morpholin-4-ylbenzamide], for which the melting point lay within 111 to 112 °C. The IC50 in series [1] turned out to be 0.0747 µM. The concentration for half-maximal inhibition (IC50) at p38α was 0.0187 µM.

With `O=C(Nc1ccc(Oc2ccnc(NC3(CO)CCCC3)n2)c2ccccc12)c1cc(F)cc(N2CCOCC2)c1` [Compound B350, 3-Fluoro-N-{4-[(2-{[1-(hydroxymethyl)cyclopentyl]amino}pyrimidin-4-yl)oxy]-1-naphthyl}-5-morpholin-4-ylbenzamide], the melting point is 115 to 117 °C. Moreover, in series [1], the IC50 was determined as 0.0681 µM. Further, the IC50 on p38α was determined as 0.0095 µM.

In turn, `COC(CN(C)c1nccc(Oc2ccc(NC(=O)c3cc(F)cc(N4CCOCC4)c3)c3ccccc23)n1)OC` [Compound B351, N-[4-({2-[(2,2-Dimethoxyethyl)(methyl)amino]pyrimidin-4-yl}oxy)-1-naphthyl]-3-fluoro-5-morpholin-4-ylbenzamide] showed a melting point of 92 to 94 °C. Moreover, in series [1], the IC50 amounted to 0.275 µM. Further, on p38α, the 50% inhibitory concentration (IC50) is 0.0271 µM.

`C#CCN(C)c1nccc(Oc2ccc(NC(=O)c3cc(F)cc(N4CCOCC4)c3)c3ccccc23)n1` [Compound B352, 3-Fluoro-N-[4-({2-[methyl(prop-2-yn-1-yl)amino]pyrimidin-4-yl}oxy)-1-naphthyl]-5-morpholin-4-ylbenzamide] registered a melting point of 97 to 98 °C. Also, in series [1], the IC50 was determined as 0.518 µM. Further, at p38α, the IC50 worked out at 0.0325 µM.

In turn, `CN1CCC(Nc2nccc(Oc3ccc(NC(=O)c4cc(F)cc(N5CCOCC5)c4)c4ccccc34)n2)CC1` [Compound B362, 3-Fluoro-N-[4-({2-[(1-methylpiperidin-4-yl)amino]pyrimidin-4-yl}oxy)-1-naphthyl]-5-morpholin-4-ylbenzamide] registered a melting point of 128 to 129 °C. For the same compound, in series [1], the IC50 is 0.0487 µM. The IC50 on p38α came out at 0.0078 µM.

Turning to `O=C(Nc1ccc(Oc2ccnc(N3CCC3)n2)c2ccccc12)c1cc(F)cc(N2CCOCC2)c1` [Compound B363, N-{4-[(2-azetidin-1-ylpyrimidin-4-yl)oxy]-1-naphthyl}-3-fluoro-5-morpholin-4-ylbenzamide], the melting point was 196 to 197 °C. Moreover, in series [1], the IC50 worked out at 0.078 µM. Besides, the IC50 on p38α amounted to 0.0058 µM.

Compound `C[C@@H]1CN(c2nccc(Oc3ccc(NC(=O)c4cc(F)cc(N5CCOCC5)c4)c4ccccc34)n2)C[C@H](C)O1` [Compound B364, N-[4-({2-[(2R,6S)-2,6-Dimethylmorpholin-4-yl]pyrimidin-4-yl}oxy)-1-naphthyl]-3-fluoro-5-morpholin-4-ylbenzamide] had a melting point of 118 to 120 °C. For the same compound, in series [1], the IC50 worked out at 0.412 µM. For the same compound, the IC50 on p38α was determined as 0.0273 µM.

For the compound `CN(C)C1CCN(c2nccc(Oc3ccc(NC(=O)c4cc(F)cc(N5CCOCC5)c4)c4ccccc34)n2)C1` (stereo not drawn) [Compound B365, N-[4-({2-[3-(Dimethylamino)pyrrolidin-1-yl]pyrimidin-4-yl}oxy)-1-naphthyl]-3-fluoro-5-morpholin-4-ylbenzamide], the melting point lay within 106 to 108 °C. In addition, the IC50 in series [1] is 0.0567 µM. The IC50 at p38α was 0.028 µM.

In turn, `CC(C)(C)OC(=O)NC1CCN(c2nccc(Oc3ccc(NC(=O)c4cc(F)cc(N5CCOCC5)c4)c4ccccc34)n2)CC1` [Compound B366, t-Butyl-{1-[4-({4-[(3-fluoro-5-morpholin-4-ylbenzoyl)amino]-1-naphthyl}oxy)pyrimidin-2-yl]piperidin-4-yl}-carbamate] registered a melting point of 214 to 216 °C. In addition, the IC50 in series [1] turned out to be 0.386 µM. The IC50 at p38α was 0.0283 µM.

In turn, `CN(C(=N)N)c1nccc(Oc2ccc(NC(=O)c3cc(F)cc(N4CCOCC4)c3)c3ccccc23)n1` [Compound B367, N-[4-({2-[[amino(imino)methyl](methyl)amino]pyrimidin-4-yl}oxy)-1-naphthyl]-3-fluoro-5-morpholin-4-ylbenzamide] displayed a melting point of 155 to 157 °C. In series [1], the IC50 worked out at 0.649 µM. Moreover, the IC50 at p38α is 0.0182 µM.

Turning to `O=C1CN(c2nccc(Oc3ccc(NC(=O)c4cc(F)cc(N5CCOCC5)c4)c4ccccc34)n2)CCN1` [Compound B368, 3-Fluoro-5-morpholin-4-yl-N-(4-{[2-(3-oxopiperazin-1-yl)pyrimidin-4-yl]oxy}-1-naphthyl)benzamide], the melting point lay within 108 to 110 °C. Also, in series [1], the IC50 worked out at 0.141 µM. Also, at p38α, the IC50 came out at 0.0197 µM.

`O=C(Nc1ccc(Oc2ccnc(NCC3OCCO3)n2)c2ccccc12)c1cc(F)cc(N2CCOCC2)c1` [Compound B369, N-[4-({2-[(1,3-dioxolan-2-ylmethyl)amino]pyrimidin-4-yl}oxy)-1-naphthyl]-3-fluoro-5-morpholin-4-ylbenzamide] came in with a melting point of 122 to 124 °C. In series [1], the IC50 stood at 0.0333 µM. Further, on p38α, the IC50 worked out at 0.0029 µM.

The record behind these values is patent US7829560B2, “1,4-disubstituted naphthalenes as inhibitors of P38 MAP kinase” (Arqule, Inc., priority 2004, dated 2010).
